The values that follow come from PMC7824787, “Design, Synthesis and In Vitro Investigation of Novel Basic Celastrol Carboxamides as Bio-Inspired Leishmanicidal Agents Endowed with Inhibitory Activity against Leishmania Hsp90” (Biomolecules, 2021).

Where two headings read alike, the source gives them in different places.

Data set [1] deals with BMDM. Nature of the data set: Cytotoxicity on BMDM (MTT). The format is cell-based, mouse. To be noted: 72 h, read-out: Healthy Cell Lines IC50, BMDM. The method, then: (§1) Cytotoxicity was evaluated on human microvascular endothelial cells (HMEC-1, provided by the Centers for Disease Control, Atlanta, GA, USA), on immortalized mouse C57Bl/6 bone marrow derived macrophages (BMDM) from wild type lineage (generated in the laboratories of Drs. Douglas Golenbock and Kate Fitzgerald, University of Massachusetts, Worcester, MA, USA) and on a human acute monocytic leukaemia cell line (THP-1).
(§2) HMEC-1 were maintained in MCDB 131 medium (Invitrogen, Milan, Italy) supplemented with 10% fetal calf serum (HyClone), 10 ng/mL of epidermal growth factor, 1 μg/mL of hydrocortisone, 2 mM glutamine and 20 mM HEPES buffer, at 37 °C in 5% CO2. BMDM were maintained in DMEM (Euroclone) medium supplemented with 10% fetal bovine serum (HyClone, Celbio, Milan, Italy), 2 mM glutamine, and 25 mM of HEPES buffer solution (Euroclone). THP-1 were maintained in RPMI supplemented with 10% heat-inactivated FCS, 50 µM 2-mercaptoethanol, 10 µM sodium pyruvate, 20 mM HEPES, and 2 mM glutamine. In order to achieve differentiation into macrophages, cells were treated with 10 ng/mL phorbol myristate acetate (PMA) for 72 h.
(§3) For the cytotoxicity assay, cells were seeded in 96 well flat bottom tissue culture clusters (Costar, New York, NY, USA) at the following concentrations: HMEC 10^5 cell/mL, BMDM at 10^6 cell/mL, THP1 at 5 × 10^5 cell/mL. After 24 h, cells were treated with serial dilutions of test compounds in a final volume of 200 µL/well. Cell proliferation was evaluated after 72 h using the MTT assay.
(§4) The absorbances were measured with a microplate spectrophotometer (Synergy 4-Biotek) at a test wavelength of 550 nm and a reference wavelength of 650 nm. The results are expressed as IC50 as the concentration inhibiting 50% of cell growth. Each IC50 value is the mean and standard deviation of at least three separate experiments performed in duplicate.

For data set [2], the system named is L. tropica promastigotes. Nature of the data set: Antileishmanial activity on L. tropica promastigotes (MTT). It is filed as cell-based. The method, then: (§5) Promastigote stage of L. infantum (MHOM/TN/80/IPT1, kindly provided by Dr. M. Gramiccia and Dr. T. Di Muccio, ISS, Roma) and L. tropica (MHOM/SY/2012/ISS3130) were cultured in RPMI 1640 medium (EuroClone) supplemented with 15% heat-inactivated fetal calf serum (EuroClone, Milan, Italy), 20 mM HEPES, and 2 mM L-glutamine at 23 °C. The MTT (3-[4.5-dimethylthiazol-2-yl]-2.5-diphenyltetrazolium bromide) method was used to estimate the 50% inhibitory concentration (IC50), with some modifications. Compounds were dissolved in DMSO and then diluted with medium to achieve the required concentrations. Test compounds were placed in 96 wells round bottom microplates and seven serial dilutions made. Amphotericin B was used as the reference antileishmanial drug. Parasites were diluted in complete medium to 5 × 10^6 parasites/mL and 100 μL of the suspension was seeded into the plates and incubated at 23 °C for 72 h. Then 20 μL of MTT solution (5 mg/mL) was added into each well, after 3 h the plates were centrifuged, the supernatants discarded and the resulting pellets dissolved in 100 μL of lysing buffer consisting of 20% (w/v) of a solution of SDS (Sigma), 40% of N,N-dimethylformamide (Merck) in H2O. The absorbance of the obtained solutions was measured at a wavelength of 550 nm with a reference at 650 nm with a microplate spectrophotometer (Synergy 4-Biotek, Milan, Italy) and analyzed with the Gen5® software for data processing.
(§6) The results are expressed as IC50, the dose of compound that is necessary to inhibit cell growth by 50%; each IC50 value is the mean ± standard deviation of at least three separate experiments performed in duplicate.

The subject of data set [3] is THP-1. Nature of the data set: Cytotoxicity on THP-1 (MTT). To be noted: read-out: Healthy Cell Lines IC50, THP-1. It is filed as cell-based, human. The method, then: as §1, §2, §3, §4
The subject of data set [4] is L. infantum promastigotes. Nature of the data set: Antileishmanial activity on L. infantum promastigotes (MTT). It is filed as cell-based. The method, then: as §5, §6
Data set [5] has as its target LbHsp90 (Leishmania braziliensis, UniProt A4HL70). Nature of the data set: In vitro inhibition of the ATPase activity of LbHsp90 (Malachite Green Phosphate Assay). The format is biochemical. As to conditions: 7 μM LbHsp90, 27 °C, 60 min. From the text:
To evaluate in vitro the modulatory activity of CE, PR and CE caboxamides, a full-length recombinant Hsp90 from L. braziliensis (LbHsp90) was produced in E. coli BL21 DE3 harboring the pET28a_LbHsp90 coding for the C-terminal His-tagged target chaperone (genbank number: XP_001567804.1, full sequence is reported in Appendix B). Pratically, the plasmid pET28a_LbHsp90, kindly donated by professor J.C. Borges, was transformed in E. coli BL21 DE3 using the TransformAid Bacterial Transformation Kit (Thermo Fisher, Waltham, MA, USA). Subsequently, the obtained transformants were grown overnight in LB medium containing 30 μg mL^−1 kanamycin (LBkan30) and then inoculated in 1 L SB kan30 medium (Yeast extract 30 g L^−1, Tryptone 20 g L^−1, NaCl 10 g L^−1) at 37 °C and 220 rpm. When the OD600 reached 0.5–1, gene expression was induced by the addition of 2 mL of 1 M IPTG solution in water and the culture was shifted at 30 °C for 24 h. After cell harvesting by centrifugation (5000 rpm for 30 min), the cell pellet was resuspended in 20 mL of wash buffer (20 mM HEPES buffer, pH 7.0, 500 mM NaCl, 20 mM imidazole) and recombinant E. coli BL21DE3 cells were disrupted by ultrasonication. LbHsp90 was subsequently purified using a Nickel Sepharose 6 Fast Flow agarose resin (Ni-NTA) (GE Healthcare, Milan, Italy) as follows. Soluble protein fraction was separated from cell debris by centrifugation (10,000 rpm for 30min) after cell ultrasonication, and clear lysates were incubated with the Ni-NTA resin for 90 min at 4 °C under mild shaking and loaded onto a glass column (10 × 110 mm). The resin was then washed with 10mL of wash buffer and His-tagged LbHsp90 was eluted using a 3 step gradient (10 mL washing buffer containing 100, 200, and 300 mM imidazole, respectively) and dialyzed against 20 mM HEPES buffer (20 mM, pH 7.5), at 4 °C overnight. The protein content was measured using the Bio-Rad Protein Assay (Hercules, CA, USA) according to the Bradford method and the protein purity was verified by SDS-PAGE analysis (10% T, 2.6% C). It is worth noting that to avoid interferences with the assays described below, proteins were purified and conserved in HEPES buffer (20 mM, pH 7.5) in place of the standard PB-buffer. Reported data are the mean of two experiments run in duplicate.
Modulatory activity toward the ATPase cycle of LbHsp90 was determined using a Malachite Green Phosphate Assay Kit (Catalog Number MAK307, Sigma-Aldrich®, St. Louis, MO, USA). Analyses were run in a 96-well plate directly following the quantitative formation of a green complex between Malachite Green, molybdate, and free orthophosphate (Pi) produced by ATP hydrolysis catalyzed by the chaperone. Color formation from the reaction was measured on a plate reader at 620 nm. Briefly, the IC50 of CE and its derivatives were extrapolated from a set of dose-response curves obtained by calculating the amount of Pi produced by LbHsp90 in the presence of different compounds concentrations.
Reactions were run in HEPES buffer (20 mM, pH 7.5) containing 3 mM MgCl2 and 50 mM KCl in the presence of different compounds concentrations ([…]), LbHsp90 (7 μM) and ATP (25 mM) at 27 °C for 60 min. OD620 was measured 30 min after Malachite Green reactants addition.
LbHsp90 native activity was measured by conducting the reaction in the presence of just LbHsp90 and ATP and extrapolating the concentration of Pi obtained.
Three sets of control experiments, (1) ATP background hydrolysis, (2) compounds-related interferences and (3) protein-related background coloration, were run as follow: • (1) ATP (25 mM) incubated at 27 °C for 60 min • (2) Compounds (different concentrations) incubated with ATP (25 mM) at 27 °C for 60 min • (3) LbHsp90 (7 μM) at 27 °C for 60 min
The in vitro performances of CE, PR and the carboxamides 1–11 (Figure 4) as potential inhibitors of the Leishmania braziliensis Hsp90 were investigated using Sigma-Aldrich® Malachite Green Phosphate Assay Kit. […]

The subject of data set [6] is HMEC-1. Nature of the data set: Cytotoxicity on HMEC-1 (MTT). It is filed as cell-based, human. To be noted: 72 h, MTT, read-out: Healthy Cell Lines IC50, HMEC-1. The method, then:
as §1, §2, §3, §4

Setting [7] is: Homo sapiens, THP-1, PMA-differentiated, 72 h, MTT.
Where [8] appears, read: Leishmania tropica, 72 h, 23 °C, MTT, read-out: Leishmania Promastigotes IC50, L. tropica.
Where [9] appears, read: 72 h, 23 °C, MTT; read-out: Leishmania Promastigotes IC50, L. tropica.

Sequence of LbHsp90 (A4HL70 entry or part of it): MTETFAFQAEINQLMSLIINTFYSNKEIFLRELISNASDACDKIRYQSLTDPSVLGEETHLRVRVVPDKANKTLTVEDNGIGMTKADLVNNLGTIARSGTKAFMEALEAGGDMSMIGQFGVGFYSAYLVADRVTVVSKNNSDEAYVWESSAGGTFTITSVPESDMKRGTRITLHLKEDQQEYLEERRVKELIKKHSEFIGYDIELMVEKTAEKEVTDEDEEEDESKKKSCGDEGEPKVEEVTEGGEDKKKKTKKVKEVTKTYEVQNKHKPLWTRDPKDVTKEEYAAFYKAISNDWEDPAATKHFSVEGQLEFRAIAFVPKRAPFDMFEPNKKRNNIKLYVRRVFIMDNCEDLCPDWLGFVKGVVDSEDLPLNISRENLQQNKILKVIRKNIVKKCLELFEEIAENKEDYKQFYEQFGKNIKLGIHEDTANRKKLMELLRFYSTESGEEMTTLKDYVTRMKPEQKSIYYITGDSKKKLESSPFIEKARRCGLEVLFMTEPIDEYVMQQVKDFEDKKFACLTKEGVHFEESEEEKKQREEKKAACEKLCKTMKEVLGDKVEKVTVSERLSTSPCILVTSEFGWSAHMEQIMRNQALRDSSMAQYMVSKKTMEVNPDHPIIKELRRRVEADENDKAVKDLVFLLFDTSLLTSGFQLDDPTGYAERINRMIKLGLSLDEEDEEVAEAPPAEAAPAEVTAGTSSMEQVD

For orientation: IC50 means the concentration that inhibits the measured activity by half. `COC(=O)[C@]1(C)CC[C@]2(C)CC[C@]3(C)C4=CC=C5C(=CC(=O)C(O)=C5C)[C@]4(C)CC[C@@]3(C)[C@@H]2C1` [PR, pristimerin, reference compound]: the IC50 was determined as 1.27 ± 0.09 µM in data set [1] (Mus musculus, BMDM); 0.24 ± 0.04 µM in data set [2] (Leishmania tropica, 72 h, read-out: Leishmania Promastigotes IC50, L. tropica); 1.1 ± 0.35 µM in data set [3] (Homo sapiens, THP-1, 72 h); 0.26 ± 0.02 µM in data set [4] (Leishmania infantum, 72 h, read-out: Leishmania Promastigotes IC50, L. infantum).

For `CC1=C(O)C(=O)C=C2C1=CC=C1[C@@]2(C)CC[C@@]2(C)[C@@H]3C[C@](C)(C(=O)NCCCN4CCCCC4)CC[C@]3(C)CC[C@]12C` [compound 2, (2R,4aS,6aS,12bR,14aS,14bR)-10-hydroxy-2,4a,6a,9,12b,14a-hexamethyl-11-oxo-N-(3-(piperidin-1-yl)propyl)-1,2,3,4,4a,5,6,6a,11,12b,13,14,14a,14b-tetradecahydropicene-2-carboxamide], the IC50 was 0.21 ± 0.04 µM in data set [2] (Leishmania tropica; 72 h, 23 °C, MTT; read-out: Leishmania Promastigotes IC50, L. tropica); above 125 µM in data set [5]; 1.78 ± 0.48 µM in data set [3] (setting [7]); 0.26 ± 0.06 µM in data set [4] (Leishmania infantum; 72 h, 23 °C, MTT; read-out: Leishmania Promastigotes IC50, L. infantum).

By melting point is commonly meant the temperature of the solid-liquid transition. With `CC1=C(O)C(=O)C=C2C1=CC=C1[C@@]2(C)CC[C@@]2(C)[C@@H]3C[C@](C)(C(=O)NCCC45CCCN4CCC5)CC[C@]3(C)CC[C@]12C` [compound 4, (2R,4aS,6aS,12bR,14aS,14bR)-N-(2-(hexahydro-1H-pyrrolizin-7a-yl)ethyl)-10-hydroxy-2,4a,6a,9,12b,14a-hexamethyl-11-oxo-1,2,3,4,4a,5,6,6a,11,12b,13,14,14a,14b-tetradecahydropicene-2-carboxamide], the melting point fell in the range of 235.7 to 237 °C. Moreover, the IC50 in data set [1] (Mus musculus, BMDM, MTT) turned out to be 2.59 ± 0.71 µM. The IC50 in data set [2] (setting [8]) was 0.2 ± 0.04 µM. Besides, the IC50 in data set [6] (Homo sapiens, HMEC-1) was determined as 0.35 ± 0.16 µM. The midpoint of inhibition in data set [5], the IC50, lay at 48 ± 3 µM. In addition, in data set [3] (setting [7]), the IC50 was 1.89 ± 0.43 µM. Besides, the IC50 in data set [4] (Leishmania infantum, 72 h, 23 °C, MTT, read-out: Leishmania Promastigotes IC50, L. infantum) came out at 0.25 ± 0.08 µM.

For the compound `CC1=C(O)C(=O)C=C2C1=CC=C1[C@@]2(C)CC[C@@]2(C)[C@@H]3C[C@](C)(C(=O)NCSS(C)(=O)=O)CC[C@]3(C)CC[C@]12C` [compound 8, S-(((2R,4aS,6aS,12bR,14aS,14bR)-10-hydroxy-2,4a,6a,9,12b,14a-hexamethyl-11-oxo-1,2,3,4,4a,5,6,6a,11,12b,13,14,14a,14b-tetradecahydropicene-2-carboxamido)methyl) methanesulfonothioate], the 50% inhibitory concentration (IC50) is 13.9 ± 2.78 µM in data set [1] (Mus musculus, BMDM, MTT); 3.44 ± 1.12 µM in data set [2] (setting [9]); 2 to 4 µM in data set [2] (setting [8]); 3.03 ± 0.01 µM in data set [6] (Homo sapiens, HMEC-1); 67 ± 3 µM in data set [5]; 2.51 ± 0.87 µM in data set [3] (setting [7]).

With “(6bS,8aS,11R,12aR,12bS,14aR)-3-hydroxy-4,6b,8a,11,12b,14a-hexamethyl-11-(((((2R,3R,4R,5S,6R)-2,4,5-trihydroxy-6-(hydroxymethyl)tetrahydro-2H-pyran-3-yl)amino)oxy)carbonyl)-7,8,8a,9,10,11,12,12a,12b,13,14,14a-dodecahydropicen-2(6bH)-one [compound 11]”, the IC50 in data set [1] (MTT) was above 15.9 µM; in data set [2] (setting [9]), 15.2 ± 2.71 µM; in data set [6], above 14.2 µM; in data set [5], 47 ± 5 µM; in data set [3] (PMA-differentiated, 72 h, MTT), above 15.9 µM; in data set [4] (72 h, 23 °C, MTT; read-out: Leishmania Promastigotes IC50, L. infantum), 14.5 ± 1.96 µM.
